Experimental data taken from patent US8178658B2 (Dow AgroSciences, LLC, priority 2008, dated 2012).
Like-named read-outs stand apart in the source and are kept apart here.

Experiments:
[1] = tested on: beet armyworm (BAW; Spodoptera exigua: Lepidoptera); assay: 128-well diet tray assay on beet armyworm (BAW 50); type: in vivo; settings: for BAW 50 ug/cm2: 50 μg/cm^2 of test compound on diet; for pest or weed control at 50 µg/cm2, 50 µg/cm2: Spodoptera exigua, 144 h, read-out: BAW 50 ug/cm2
Outline: (§1)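 Mortality is the read-out for both formats, scored against a 50% cut-off. Microplate wells received eggs over diet carrying 12 μg test compound, kept in darkness at 29° C for 6 d, six replicates averaged. Diet-tray wells held second instar larvae on diet at 50 μg/cm^2, kept 6 d at 25° C under 14:10 photoperiod.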

[2] = tested on: beet armyworm (BAW; Spodoptera exigua: Lepidoptera); assay: 96-well microtiter plate-based high throughput (HTS) diet bioassay on beet armyworm (BAW HTS); type: in vivo; settings: for pest or weed control at 12 µg/well, 12 µg/well: Spodoptera exigua, 144 h, read-out: BAW HTS
Outline: as §1

[3] = 128-well diet tray assay, second instar BAW larvae, mortality class
[4] = 96-well HTS diet bioassay, BAW eggs, 12 μg test compound per well, mortality at 6 d post-treatment, mortality class
[5] = 96-well microtiter plate HTS diet assay, 12 μg test compound per well, BAW eggs, mortality at 6 d post-treatment, mortality class
[6] = 96-well HTS diet assay, BAW eggs, 12 μg test compound per well, mortality at 6 d post-treatment, mortality class

Compound | BAW 50 ug/cm2 [1, 3] | BAW HTS [2, 4] | BAW HTS [2, 5] | BAW HTS [2, 6] | pest or weed control at 50 µg/cm2, 50 µg/cm2 ([1]; 128-well diet tray assay, second instar BAW larvae, 50 μg/cm2 of test compound on diet, mortality class) [%] | pest or weed control at 12 µg/well, 12 µg/well [2, 4] [%] | pest or weed control at 50 µg/cm2, 50 µg/cm2 [1] [%] | pest or weed control at 12 µg/well, 12 µg/well [2] [%]
COCC1OC(ON=Cc2ccc(-c3ncn(-c4ccc(OC(F)(F)C(F)(F)F)cc4)n3)cc2)C(OC)C(OC)C1OC (stereo not drawn) [Compound 119] | A (the compound was tested and at least 50 percent mortality was observed) | A (the compound was tested and at least 50 percent mortality was observed) | A (the compound was tested and at least 50 percent mortality was observed) | – | – | – | – | –
CCOC1C(OC)C(C)OC(ON=Cc2ccc(-c3ncn(-c4ccc(OS(=O)(=O)C(F)(F)F)cc4)n3)cc2)C1OC (stereo not drawn) [Compound 112] | A (the compound was tested and at least 50 percent mortality was observed) | B (either (1) the compound was tested and less than 50 percent mortality was observed or (2) the compound was not tested) | B (either (1) the compound was tested and less than 50 percent mortality was observed or (2) the compound was not tested) | – | – | – | – | –
COC1C(C)OC(ON=Cc2ccc(-c3ccn(-c4ccc(OC(F)(F)C(F)F)cc4)n3)cc2)C(OC)C1OC (stereo not drawn) [Compound 7] | A (the compound was tested and at least 50 percent mortality was observed) | B (either (1) the compound was tested and less than 50 percent mortality was observed or (2) the compound was not tested) | B (either (1) the compound was tested and less than 50 percent mortality was observed or (2) the compound was not tested) | – | – | – | – | –
COC1C(C)OC(ON=C(C)c2ccc(-c3cn(-c4ccc(OC(F)(F)F)cc4)cn3)cc2)C(OC)C1OC (stereo not drawn) [Compound 165] | A (the compound was tested and at least 50 percent mortality was observed) | – | B (either (1) the compound was tested and less than 50 percent mortality was observed or (2) the compound was not tested) | B (either (1) the compound was tested and less than 50 percent mortality was observed or (2) the compound was not tested) | – | – | – | –
COC1C(C)OC(ON=Cc2ccc(Cl)c(-c3cn(-c4ccc(OC(F)(F)F)cc4)cn3)c2)C(OC)C1OC (stereo not drawn) [Compound 50] | A (the compound was tested and at least 50 percent mortality was observed) | A (the compound was tested and at least 50 percent mortality was observed) | A (the compound was tested and at least 50 percent mortality was observed) | – | – | – | – | –
COC1C(C)OC(ON=Cc2ccc(-c3cccc(-c4ccc(OC(F)(F)F)cc4)n3)cc2)C(OC)C1OC (stereo not drawn) [Compound 134] | A (the compound was tested and at least 50 percent mortality was observed) | – | B (either (1) the compound was tested and less than 50 percent mortality was observed or (2) the compound was not tested) | B (either (1) the compound was tested and less than 50 percent mortality was observed or (2) the compound was not tested) | – | – | – | –
CCO[C@@H]1[C@@H](OC)[C@H](C)O[C@@H](OC(=O)Nc2ccc(C3=NN(c4ccc(OC(F)(F)C(F)(F)F)cc4)CC3)cc2)[C@@H]1OC [Compound 179] | A (the compound was tested and at least 50 percent mortality was observed) | – | B (either (1) the compound was tested and less than 50 percent mortality was observed or (2) the compound was not tested) | B (either (1) the compound was tested and less than 50 percent mortality was observed or (2) the compound was not tested) | – | – | – | –
CO[C@@H]1[C@@H](OC)[C@H](C)O[C@@H](O/N=C/c2ccc(-n3cnc(-c4ccccc4F)n3)cc2)[C@@H]1OC [Compound 70] | B (either (1) the compound was tested and less than 50 percent mortality was observed or (2) the compound was not tested) | A (the compound was tested and at least 50 percent mortality was observed) | A (the compound was tested and at least 50 percent mortality was observed) | – | – | – | – | –
CO[C@@H]1[C@@H](OC)[C@H](C)O[C@@H](O/N=C/c2ccc(-c3ncn(-c4ccc(OC(F)(F)C(F)C(F)(F)F)cn4)n3)cc2)[C@@H]1OC (stereo partly drawn) [Compound 94, 4-{1-[5-(1,1,2,3,3,3-hexafluoropropoxy)-pyridinyl]-1H-[1,2,4]triazol-3-yl}-benzaldehyde O-((2S,3R,4R,5S,6S)-3,4,5-trimethoxy-6-methyl-tetrahydropyran-2-yl)-oxime] | A (the compound was tested and at least 50 percent mortality was observed) | – | B (either (1) the compound was tested and less than 50 percent mortality was observed or (2) the compound was not tested) | – | > 50 | < 50 | – | –
CCOC1C(OC)C(C)OC(ON=Cc2cccc(-c3ncc(-c4ccc(OC(F)(F)F)cc4)cn3)c2)C1OC (stereo not drawn) [Compound 146] | A (the compound was tested and at least 50 percent mortality was observed) | – | B (either (1) the compound was tested and less than 50 percent mortality was observed or (2) the compound was not tested) | B (either (1) the compound was tested and less than 50 percent mortality was observed or (2) the compound was not tested) | – | – | – | –
COC1C(C)OC(ON=Cc2ccc(-c3ncn(-c4ccc(C(C)C)cc4)n3)cc2)C(OC)C1OC (stereo not drawn) [Compound 83] | A (the compound was tested and at least 50 percent mortality was observed) | B (either (1) the compound was tested and less than 50 percent mortality was observed or (2) the compound was not tested) | B (either (1) the compound was tested and less than 50 percent mortality was observed or (2) the compound was not tested) | – | – | – | – | –
CO[C@@H]1[C@@H](OC)[C@H](C)O[C@@H](O/N=C/c2ccc(-c3cn(-c4ccc(OC(F)(F)C(F)(F)F)cc4)cn3)cc2)[C@@H]1OC [Compound 51] | A (the compound was tested and at least 50 percent mortality was observed) | B (either (1) the compound was tested and less than 50 percent mortality was observed or (2) the compound was not tested) | B (either (1) the compound was tested and less than 50 percent mortality was observed or (2) the compound was not tested) | – | – | – | – | –
COC1C(C)OC(ON=C(C)c2ccc(Cl)c(-c3cn(-c4ccc(OC(F)(F)F)cc4)cn3)c2)C(OC)C1OC (stereo not drawn) [Compound 167] | A (the compound was tested and at least 50 percent mortality was observed) | – | B (either (1) the compound was tested and less than 50 percent mortality was observed or (2) the compound was not tested) | B (either (1) the compound was tested and less than 50 percent mortality was observed or (2) the compound was not tested) | – | – | – | –
CO[C@@H]1[C@@H](OC)[C@H](C)O[C@H](OC(=O)Nc2ccc(-c3ncn(-c4ccc(OC(F)(F)C(F)(F)F)cc4)n3)cc2)[C@@H]1OC [Compound 208] | A (the compound was tested and at least 50 percent mortality was observed) | – | A (the compound was tested and at least 50 percent mortality was observed) | A (the compound was tested and at least 50 percent mortality was observed) | – | – | – | –
CO[C@@H]1[C@@H](OC)[C@H](C)O[C@@H](OC(=O)Nc2ccc(-n3cnc(-c4ccc(C(F)(F)F)cc4)n3)cc2Cl)[C@@H]1OC [Compound 189, {2-chloro-4-[3-(4-trifluoromethylphenyl)-[1,2,4]triazol-1-yl]-phenyl}-carbamic acid (2S,3R,4R,5S,6S)-3,4,5-trimethoxy-6-methyl-tetrahydropyran-2-yl ester] | A (the compound was tested and at least 50 percent mortality was observed) | – | A (the compound was tested and at least 50 percent mortality was observed) | – | – | – | > 50 | > 50
COC1C(C)OC(ON=Cc2ccc(-c3cn(-c4nc(F)c(F)c(F)c4F)cn3)cc2)C(OC)C1OC (stereo not drawn) [Compound 38] | A (the compound was tested and at least 50 percent mortality was observed) | B (either (1) the compound was tested and less than 50 percent mortality was observed or (2) the compound was not tested) | B (either (1) the compound was tested and less than 50 percent mortality was observed or (2) the compound was not tested) | – | – | – | – | –
CCCO[C@@H]1[C@@H](OC)[C@H](C)O[C@@H](OC(=O)N(CO)c2ccc(-c3ncn(-c4ccc(OC(F)(F)C(F)(F)F)cc4)n3)cc2)[C@@H]1OC [Compound 257, hydroxymethyl {4-[1-(4-pentafluoroethoxy-phenyl)-1H-[1,2,4]triazol-3-yl]-phenyl}-carbamic acid (2S,3R,4R,5S,6S)-4-propoxy-3,5-dimethoxy-6-methyl-tetrahydropyran-2-yl ester] | A (the compound was tested and at least 50 percent mortality was observed) | – | B (either (1) the compound was tested and less than 50 percent mortality was observed or (2) the compound was not tested) | – | – | – | > 50 | < 50
COC(=O)C1CC(c2ccc(/C=N/O[C@@H]3O[C@@H](C)[C@H](OC)[C@@H](OC)[C@H]3OC)cc2)=NN1c1ccc(OC(F)(F)F)cc1 (stereo partly drawn) [Compound 54] | A (the compound was tested and at least 50 percent mortality was observed) | A (the compound was tested and at least 50 percent mortality was observed) | A (the compound was tested and at least 50 percent mortality was observed) | – | – | – | – | –
